Data: PubChem BioAssay (NCI)
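Here, GI50 denotes the concentration required for 50% inhibition of growth. TGI: concentration producing complete growth inhibition.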

What was measured:
Assay in all cases: NCI anticancer screen, dose series, 384-well format
SF-295 CNS = tested on: SF-295 CNS
NCI-H322M lung = tested on: NCI-H322M lung
NCI/ADR-RES ovarian = tested on: NCI/ADR-RES ovarian
SN12C renal = tested on: SN12C renal
NCI-H522 lung = tested on: NCI-H522 lung
RPMI-8226 leukemia = tested on: RPMI-8226 leukemia
SK-OV-3 ovarian = tested on: SK-OV-3 ovarian
NCI-H226 lung = tested on: NCI-H226 lung
RXF 393 renal = tested on: RXF 393 renal
786-0 renal = tested on: 786-0 renal
NCI-H23 lung = tested on: NCI-H23 lung
SR leukemia = tested on: SR leukemia
HCT-15 colon = tested on: HCT-15 colon
LOX IMVI melanoma = tested on: LOX IMVI melanoma
HT29 colon = tested on: HT29 colon
NCI-H460 NSCLC = tested on: NCI-H460 NSCLC
HOP-92 NSCLC = tested on: HOP-92 NSCLC
HCC-2998 colon = tested on: HCC-2998 colon
UACC-62 melanoma = tested on: UACC-62 melanoma
OVCAR-3 ovarian = tested on: OVCAR-3 ovarian
KM12 colon = tested on: KM12 colon
HL-60(TB) leukemia = tested on: HL-60(TB) leukemia
MDA-MB-468 breast = tested on: MDA-MB-468 breast
SF-539 CNS = tested on: SF-539 CNS
ACHN renal = tested on: ACHN renal
SK-MEL-5 melanoma = tested on: SK-MEL-5 melanoma
EKVX NSCLC = tested on: EKVX NSCLC
SF-268 CNS = tested on: SF-268 CNS
MOLT-4 leukemia = tested on: MOLT-4 leukemia
A498 renal = tested on: A498 renal

Q: With `Cc1cc(Nc2nc(N[C@@H](C)c3ncc(F)cn3)ncc2Cl)n[nH]1` as the molecule, how does the GI50 (SF-295 CNS) read?
A: 47.4 µM

Q: And the TGI (SF-295 CNS)?
A: > 100 µM

Q: And the GI50 (NCI-H322M lung)?
A: 42.6 µM

Q: What about the TGI (NCI-H322M lung) of the same molecule?
A: > 100 µM

Q: What about the GI50 (NCI/ADR-RES ovarian) of the same molecule?
A: 20.2 µM

Q: What about the TGI (NCI/ADR-RES ovarian) of the same molecule?
A: 60.4 µM

Q: And the GI50 (SN12C renal)?
A: 31.3 µM

Q: And the TGI (SN12C renal)?
A: > 100 µM

Q: What about the GI50 (NCI-H522 lung) of the same molecule?
A: 4.66 µM

Q: What about the TGI (NCI-H522 lung) of the same molecule?
A: 28.5 µM

Q: What about the GI50 (RPMI-8226 leukemia) of the same molecule?
A: 18.4 µM

Q: What about the TGI (RPMI-8226 leukemia) of the same molecule?
A: 73 µM

Q: And the GI50 (SK-OV-3 ovarian)?
A: 18.6 µM

Q: And the TGI (SK-OV-3 ovarian)?
A: 78.1 µM

Q: What about the GI50 (NCI-H226 lung) of the same molecule?
A: 12 µM

Q: What about the TGI (NCI-H226 lung) of the same molecule?
A: > 100 µM

Q: And the GI50 (RXF 393 renal)?
A: 18.9 µM

Q: And the TGI (RXF 393 renal)?
A: 46 µM

Q: What about the GI50 (786-0 renal) of the same molecule?
A: 33.6 µM

Q: What about the TGI (786-0 renal) of the same molecule?
A: > 100 µM

Q: And the GI50 (NCI-H23 lung)?
A: 35.2 µM

Q: What about the TGI (NCI-H23 lung) of the same molecule?
A: > 100 µM

Q: And the GI50 (SR leukemia)?
A: 5.01 µM

Q: What about the TGI (SR leukemia) of the same molecule?
A: 12.2 µM

Q: What about the GI50 (HCT-15 colon) of the same molecule?
A: 26.4 µM

Q: What about the TGI (HCT-15 colon) of the same molecule?
A: > 100 µM

Q: And the GI50 (LOX IMVI melanoma)?
A: 27.6 µM

Q: And the TGI (LOX IMVI melanoma)?
A: 71 µM

Q: And the GI50 (HT29 colon)?
A: 27.4 µM

Q: What about the TGI (HT29 colon) of the same molecule?
A: > 100 µM

Q: What about the GI50 (NCI-H460 NSCLC) of the same molecule?
A: 21.5 µM

Q: What about the TGI (NCI-H460 NSCLC) of the same molecule?
A: > 100 µM

Q: What about the GI50 (HOP-92 NSCLC) of the same molecule?
A: 27.8 µM

Q: And the TGI (HOP-92 NSCLC)?
A: 91.3 µM

Q: And the GI50 (HCC-2998 colon)?
A: 28.3 µM

Q: What about the TGI (HCC-2998 colon) of the same molecule?
A: > 100 µM

Q: And the GI50 (UACC-62 melanoma)?
A: 40.7 µM

Q: And the TGI (UACC-62 melanoma)?
A: > 100 µM

Q: What about the GI50 (OVCAR-3 ovarian) of the same molecule?
A: 43.8 µM

Q: And the TGI (OVCAR-3 ovarian)?
A: > 100 µM

Q: What about the GI50 (KM12 colon) of the same molecule?
A: 0.381 µM

Q: What about the TGI (KM12 colon) of the same molecule?
A: > 100 µM

Q: What about the GI50 (HL-60(TB) leukemia) of the same molecule?
A: 16 µM

Q: What about the TGI (HL-60(TB) leukemia) of the same molecule?
A: 31 µM

Q: What about the GI50 (MDA-MB-468 breast) of the same molecule?
A: 17.3 µM

Q: What about the TGI (MDA-MB-468 breast) of the same molecule?
A: 33.1 µM

Q: What about the GI50 (SF-539 CNS) of the same molecule?
A: 14 µM

Q: And the TGI (SF-539 CNS)?
A: 34.1 µM

Q: What about the GI50 (ACHN renal) of the same molecule?
A: 31.2 µM

Q: What about the TGI (ACHN renal) of the same molecule?
A: > 100 µM

Q: And the GI50 (SK-MEL-5 melanoma)?
A: 30.5 µM

Q: What about the TGI (SK-MEL-5 melanoma) of the same molecule?
A: > 100 µM

Q: And the GI50 (EKVX NSCLC)?
A: 23.9 µM

Q: And the TGI (EKVX NSCLC)?
A: 79.3 µM

Q: And the GI50 (SF-268 CNS)?
A: 18.4 µM

Q: What about the TGI (SF-268 CNS) of the same molecule?
A: 63.4 µM

Q: And the GI50 (MOLT-4 leukemia)?
A: 16.7 µM

Q: What about the TGI (MOLT-4 leukemia) of the same molecule?
A: 33.8 µM

Q: What about the GI50 (A498 renal) of the same molecule?
A: 35.8 µM
